PMC6585621 (Clinical Pharmacology and Therapeutics, 2018)
Like-named read-outs stand apart in the source and are kept apart here.

Assays:
[1] = cited from earlier work
[2] = Pharmacokinetics of clopidogrel and its metabolites with and without ritonavir; format: in vivo, human; conditions: for C max / AUC0‐4h / AUC0‐∞ / t ½ / t max / AUC / half-life: after clopidogrel 300 mg oral; for C max / AUC0‐4h / AUC0‐∞ / t ½ / Clopidogrel active metabolite: clopidogrel AUC0‐∞ ratio / AUC / half-life: geometric mean (geometric CV); for t max: median (range); for half-life: t ½
platelet aggregation = conditions: clopidogrel 300 mg, arithmetic mean (SD)
[3] = tested on: carboxylesterase 1 (CES1); conditions: cited from earlier work
[4] = cited from earlier work; remark: listed apart in the source
CYP3A4 = conditions: in the absence of ritonavir; cited from earlier work
[5] = format: in vivo, human; conditions: for t ½ / t max / M1:dasabuvir AUC0‐23h ratio / M1:dasabuvir AUC0‐∞ ratio: after dasabuvir 250 mg oral; for t ½ / M1:dasabuvir AUC0‐23h ratio / M1:dasabuvir AUC0‐∞ ratio: geometric mean (geometric CV); for effect of ritonavir on pharmacokinetics compared to pretreatment with placebo: ritonavir 100 mg twice daily; for t max: median (range)
[6] = cited from earlier work; remark: listed apart in the source
[7] = Pharmacokinetics of ritonavir with and without clopidogrel; format: in vivo, human
[8] = in humans; cited from earlier work
[9] = clopidogrel and ritonavir phase (ritonavir 100 mg twice daily)
[10] = clopidogrel and ritonavir phase

COC(=O)[C@H](c1ccccc1Cl)N1CC[C@@H](S)/C(=C\C(=O)O)C1 [Clopidogrel active metabolite]
decrease of AUC by ketoconazole [1]: 22–29%
C max [2, 9]: 6.77 (140) ng/mL
AUC0‐4h [2, 10]: 9.16 (150) ng·h/mL
AUC0‐∞ [2, 10]: 14.9 (170) ng·h/mL
t ½ [2, 10]: 0.89 (90) h
t max [2, 10]: 0.92 (0.92–1.5) h
AUC0‐4h ([2]; clopidogrel phase): 18.7 (77) ng·h/mL
AUC0‐∞ ([2]; clopidogrel phase): 19.3 (79) ng·h/mL
C max ([2]; clopidogrel phase): 13.0 (72) ng/mL
t ½ ([2]; clopidogrel phase): 1.05 (58) h
t max ([2]; clopidogrel phase): 0.92 (0.92–1.5) h
Clopidogrel active metabolite: clopidogrel AUC0‐∞ ratio [2, 10]: 1.83 (200)
Clopidogrel active metabolite: clopidogrel AUC0‐∞ ratio ([2]; clopidogrel phase): 1.79 (110)
AUC0‐4h in clopidogrel–ritonavir phase as % of that in the clopidogrel phase ([2]; geometric mean): 49%
C max in clopidogrel–ritonavir phase as % of that in the clopidogrel phase ([2]; geometric mean): 52%
AUC0‐4h, clopidogrel and ritonavir phase to clopidogrel phase ratio ([2]; geometric mean ratio (90% CI)): 0.49 (0.39–0.61); P = 0.0001
AUC0‐∞, clopidogrel and ritonavir phase to clopidogrel phase ratio ([2]; geometric mean ratio (90% CI)): 0.77 (0.59–1.00)
C max, clopidogrel and ritonavir phase to clopidogrel phase ratio ([2]; geometric mean ratio (90% CI)): 0.52 (0.41–0.65); P = 0.0003
Clopidogrel active metabolite: clopidogrel AUC0‐∞ ratio, clopidogrel and ritonavir phase to clopidogrel phase ratio ([2]; geometric mean ratio (90% CI)): 1.03 (0.53–1.97)
t ½, clopidogrel and ritonavir phase to clopidogrel phase ratio ([2]; geometric mean ratio (90% CI)): 0.85 (0.66–1.08)

O=C(O)[C@H]1O[C@@H](OC(=O)[C@H](c2ccccc2Cl)N2CCc3sccc3C2)[C@H](O)[C@@H](O)[C@@H]1O [Clopidogrel acyl‐β‐D‐glucuronide, clopidogrel acyl‐β‐D‐glucuronide]
C max [2, 9]: 1,610 (43) ng/mL
AUC0‐4h [2, 10]: 4,030 (45) ng·h/mL
AUC0‐∞ [2, 10]: 6,430 (46) ng·h/mL
t ½ [2, 10]: 2.02 (8.5) h
t max [2, 10]: 1.5 (1.5–3.0) h
AUC0‐4h ([2]; clopidogrel phase): 3,630 (56) ng·h/mL
AUC0‐∞ ([2]; clopidogrel phase): 6,840 (53) ng·h/mL
C max ([2]; clopidogrel phase): 1,420 (57) ng/mL
t ½ ([2]; clopidogrel phase): 2.83 (19) h
t max ([2]; clopidogrel phase): 1.75 (0.92–2.0) h
AUC0‐4h, clopidogrel and ritonavir phase to clopidogrel phase ratio ([2]; geometric mean ratio (90% CI)): 1.11 (0.86–1.43)
AUC0‐∞, clopidogrel and ritonavir phase to clopidogrel phase ratio ([2]; geometric mean ratio (90% CI)): 0.94 (0.71–1.23)
C max, clopidogrel and ritonavir phase to clopidogrel phase ratio ([2]; geometric mean ratio (90% CI)): 1.13 (0.86–1.47)
t ½, clopidogrel and ritonavir phase to clopidogrel phase ratio ([2]; geometric mean ratio (90% CI)): 0.71 (0.63–0.81); P = 0.0007

O=C(O)[C@H](c1ccccc1Cl)N1CCc2sccc2C1 [Clopidogrel carboxylic acid, clopidogrel carboxylic acid]
C max [2, 9]: 12,300 (34) ng/mL
AUC0‐4h [2, 10]: 27,800 (37) ng·h/mL
AUC0‐∞ [2, 10]: 41,600 (37) ng·h/mL
t ½ [2, 10]: 2.46 (12) h
t max [2, 10]: 0.92 (0.92–1.5) h
AUC0‐4h ([2]; clopidogrel phase): 26,800 (29) ng·h/mL
AUC0‐∞ ([2]; clopidogrel phase): 44,300 (26) ng·h/mL
C max ([2]; clopidogrel phase): 12,200 (22) ng/mL
t ½ ([2]; clopidogrel phase): 2.98 (21) h
t max ([2]; clopidogrel phase): 0.92 (0.92–1.5) h
AUC0‐4h, clopidogrel and ritonavir phase to clopidogrel phase ratio ([2]; geometric mean ratio (90% CI)): 1.04 (0.91–1.18)
AUC0‐∞, clopidogrel and ritonavir phase to clopidogrel phase ratio ([2]; geometric mean ratio (90% CI)): 0.94 (0.80–1.10)
C max, clopidogrel and ritonavir phase to clopidogrel phase ratio ([2]; geometric mean ratio (90% CI)): 1.01 (0.89–1.15)
t ½, clopidogrel and ritonavir phase to clopidogrel phase ratio ([2]; geometric mean ratio (90% CI)): 0.83 (0.72–0.95); P = 0.03

COC(=O)[C@H](c1ccccc1Cl)N1CCc2sccc2C1 [Clopidogrel, clopidogrel, reference compound]
AUC0‐4h, clopidogrel and ritonavir phase to clopidogrel phase ratio ([2]; geometric mean ratio (90% CI)): 0.75 (0.40–1.44)
AUC0‐∞, clopidogrel and ritonavir phase to clopidogrel phase ratio ([2]; geometric mean ratio (90% CI)): 0.75 (0.39–1.43)
C max, clopidogrel and ritonavir phase to clopidogrel phase ratio ([2]; geometric mean ratio (90% CI)): 0.79 (0.40–1.57)
t ½, clopidogrel and ritonavir phase to clopidogrel phase ratio ([2]; geometric mean ratio (90% CI)): 0.89 (0.72–1.11)
Cmax ([2]; human, plasma, po, 300 mg): 4.49 ng/mL
AUC ([2]; human, plasma, po, 300 mg, AUC0‐4h, clopidogrel and ritonavir phase): 6.44 ng·h/mL
AUC ([2]; human, plasma, po, 300 mg, AUC0‐4h, clopidogrel phase): 8.53 ng·h/mL
AUC ([2]; human, plasma, po, 300 mg, AUC0‐∞, clopidogrel and ritonavir phase): 8.14 ng·h/mL
AUC ([2]; human, plasma, po, 300 mg, AUC0‐∞, clopidogrel phase): 10.8 ng·h/mL
half-life ([2]; human, plasma, po, 300 mg, clopidogrel and ritonavir phase): 1.77 h
half-life ([2]; human, plasma, po, 300 mg, clopidogrel phase): 1.98 h
Inhibition of platelet aggregation, average inhibition at 0‐24 h (platelet aggregation; [10]): 31 (28) %
Inhibition of platelet aggregation, maximal inhibition (platelet aggregation; [10]): 40 (29) %
Inhibition of platelet aggregation, average inhibition at 0‐24 h (platelet aggregation; clopidogrel phase): 51 (24) %
Inhibition of platelet aggregation, maximal inhibition (platelet aggregation; clopidogrel phase): 60 (23) %
fraction hydrolyzed by CES1 to inactive carboxylic acid metabolite [3]: About 90%

COc1c(-c2ccc3cc(NS(C)(=O)=O)ccc3c2)cc(-n2ccc(=O)[nH]c2=O)cc1C(C)(C)C [Dasabuvir, dasabuvir, reference compound]
prolongation of half‐life (t ½) by concomitant gemfibrozil ([4]; humans): 18 fold
increase of AUC by concomitant gemfibrozil ([4]; humans, during ritonavir coadministration): 11 fold
fraction metabolized by CYP2C8 ([4]; in the presence of the CYP3A4 inhibitor ritonavir): > 0.9
share of overall metabolism for which CYP3A4 is responsible (CYP3A4): about 30%
highest individual increase in AUC0‐∞, clopidogrel phase vs placebo phase ([5]; 12 subjects): > 10 fold
range of individual increases of AUC0‐∞ by clopidogrel compared with placebo ([5]; 12 subjects, clopidogrel phase vs placebo phase): 2.0–10.1 fold
t ½ ([5]; ritonavir phase): 8.22 (25) h
AUC0‐∞ in clopidogrel phase as % of that during placebo ([5]; geometric mean): 467%
AUC0‐∞ in clopidogrel–ritonavir phase as % of that during the ritonavir phase ([5]; geometric mean): 389%
C max in clopidogrel–ritonavir phase as % of that during the ritonavir phase ([5]; geometric mean): 182%
AUC0‐23h, clopidogrel and ritonavir phase to ritonavir phase ratio ([5]; geometric mean ratio (90% CI)): 3.13 (2.17–4.52) P = 0.00002
AUC0‐∞, clopidogrel phase to placebo phase ratio ([5]; geometric mean ratio (90% CI)): 4.67 (3.23–6.74) P = 8·10^−7
C max, clopidogrel and ritonavir phase to ritonavir phase ratio ([5]; geometric mean ratio (90% CI)): 1.82 (1.27–2.61) P = 0.004
C max, clopidogrel phase to placebo phase ratio ([5]; geometric mean ratio (90% CI)): 1.63 (1.03–2.57) P = 0.07
t ½, clopidogrel and ritonavir phase to ritonavir phase ratio ([5]; geometric mean ratio (90% CI)): 1.40 (1.14–1.73) P = 0.005
t ½, clopidogrel phase to placebo phase ratio ([5]; geometric mean ratio (90% CI)): 1.84 (1.59–2.13) P = 1·10^−6
contribution of CYP2C8 to metabolism ([5]; implied from clopidogrel interaction, both with and without ritonavir): exceed 80%
effect of ritonavir on pharmacokinetics compared to pretreatment with placebo [5]: did not cause significant changes
trend of lower concentrations in the ritonavir phase than in the placebo phase ([5]; statistically insignificant): –20%
PBPK-predicted increase of AUC by clopidogrel [6]: 1.9–2.8 fold
implied reduction in clearance by clopidogrel (PBPK prediction) [6]: 47–64%

COc1c(-c2ccc3cc(NS(C)(=O)=O)ccc3c2)cc(-n2ccc(=O)[nH]c2=O)cc1C(C)(C)CO [M1]
t max [5, 10]: 4.0 (3.0–23) h
M1:dasabuvir AUC0‐23h ratio ([5]; clopidogrel phase): 0.0102 (42)
M1:dasabuvir AUC0‐∞ ratio ([5]; clopidogrel phase): 0.0135 (32)
t ½ ([5]; clopidogrel phase): 17.3 (23) h
t max ([5]; clopidogrel phase): 4.0 (3.0–23) h
M1:dasabuvir AUC0‐23h ratio ([5]; placebo phase): 0.0795 (28)
M1:dasabuvir AUC0‐∞ ratio ([5]; placebo phase): 0.0774 (29)
t ½ ([5]; placebo phase): 7.87 (32) h
t max ([5]; placebo phase): 4.0 (2.0–4.0) h
M1:dasabuvir AUC0‐23h ratio ([5]; ritonavir phase): 0.0888 (35)
M1:dasabuvir AUC0‐∞ ratio ([5]; ritonavir phase): 0.0786 (38)
t ½ ([5]; ritonavir phase): 7.35 (25) h
t max ([5]; ritonavir phase): 4.0 (3.0–6.0) h
AUC0‐23h in clopidogrel phase as % of that during placebo phase ([5]; geometric mean): 41%
AUC0‐23h in clopidogrel–ritonavir phase as % of that during the ritonavir phase ([5]; geometric mean): 48%
C max in clopidogrel phase as % of that in the placebo phase ([5]; geometric mean): 20%
C max in clopidogrel–ritonavir phase as % of that during the ritonavir phase ([5]; geometric mean): 22%
M1:dasabuvir AUC0‐∞ ratio in clopidogrel phase as % of that with placebo ([5]; geometric mean): 17%
AUC0‐23h, clopidogrel and ritonavir phase to ritonavir phase ratio ([5]; geometric mean ratio (90% CI)): 0.48 (0.32–0.71) P = 0.002
AUC0‐23h, clopidogrel phase to placebo phase ratio ([5]; geometric mean ratio (90% CI)): 0.41 (0.26–0.65) P = 0.001
C max, clopidogrel and ritonavir phase to ritonavir phase ratio ([5]; geometric mean ratio (90% CI)): 0.22 (0.13–0.36) P = 0.00002
C max, clopidogrel phase to placebo phase ratio ([5]; geometric mean ratio (90% CI)): 0.20 (0.11–0.36) P = 0.00006
M1:dasabuvir AUC0‐23h ratio, clopidogrel and ritonavir phase to ritonavir phase ratio ([5]; geometric mean ratio (90% CI)): 0.14 (0.12–0.17) P = 5·10^−11
M1:dasabuvir AUC0‐23h ratio, clopidogrel phase to placebo phase ratio ([5]; geometric mean ratio (90% CI)): 0.13 (0.11–0.15) P = 5·10^−12
M1:dasabuvir AUC0‐∞ ratio, clopidogrel and ritonavir phase to ritonavir phase ratio ([5]; geometric mean ratio (90% CI)): 0.20 (0.17–0.25) P = 5·10^−10
M1:dasabuvir AUC0‐∞ ratio, clopidogrel phase to placebo phase ratio ([5]; geometric mean ratio (90% CI)): 0.17 (0.16–0.19) P = 2·10^−14
t ½, clopidogrel and ritonavir phase to ritonavir phase ratio ([5]; geometric mean ratio (90% CI)): 1.92 (1.57–2.34) P = 0.00001
t ½, clopidogrel phase to placebo phase ratio ([5]; geometric mean ratio (90% CI)): 2.20 (1.72–2.81) P = 0.00001
effect of ritonavir on pharmacokinetics compared to pretreatment with placebo [5]: did not cause significant changes

CC(C)c1nc(CN(C)C(=O)N[C@H](C(=O)N[C@@H](Cc2ccccc2)C[C@H](O)[C@H](Cc2ccccc2)NC(=O)OCc2cncs2)C(C)C)cs1 [Ritonavir, ritonavir]
t max ([7]; clopidogrel and ritonavir phase, median (range)): 3.0 h
t ½ during coadministration of clopidogrel as % of that in the ritonavir phase ([7]; geometric mean): 112%
t max ([7]; human, plasma, oral): 1.75 h

CC(C)(O)c1ccccc1CC[C@@H](SCC1(CC(=O)O)CC1)c1cccc(/C=C/c2ccc3ccc(Cl)cc3n2)c1 [montelukast]
increase of AUC of CYP2C8 substrate by gemfibrozil [4]: ~4.5 fold

CCc1ccc(CCOc2ccc(CC3SC(=O)NC3=O)cc2)nc1 (stereo not shown) [pioglitazone]
increase of AUC of CYP2C8 substrate by gemfibrozil [4]: about 3 fold

O=C(O)C[C@H](O)C[C@H](O)/C=C/c1c(C2CC2)nc2ccccc2c1-c1ccc(F)cc1 [pitavastatin]
effect of clopidogrel on pharmacokinetics [8]: not affected

CCOc1cc(CC(=O)N[C@@H](CC(C)C)c2ccccc2N2CCCCC2)ccc1C(=O)O [repaglinide]
increase of AUC of CYP2C8 substrate by gemfibrozil [4]: ~8 fold
